Data from PMC11864180, “Dimeric assembly of F1-like ATPase for the gliding motility of Mycoplasma” (Science Advances, 2025).

Target: T1, G1-ATPase (dimeric F1-like ATPase, twin motor; type 2 ATPase) ([Mycoplasma] mobile, UniProt Q6KIC3+Q6KIC4)
T1 construct: gene atpA; native twin motor isolated from M. mobile cells; two alpha3beta3gamma units with GliD, GliE and PGK; PGK CTD only partly modelled; strain mutation lies in gli521, outside the complex; with F1-like ATPase gamma subunit (G1-gamma); GliD (bridge subunit of G1-ATPase); GliE (G1-ATPase subunit, 112 amino acids); Phosphoglycerate kinase
Assay: cryo-EM structure of the complex ([…] Å; local […] Å)
Type: binding
Settings: Mg2+, endogenous nucleotide, isolated without added nucleotide, PBS pH 7.3, 1 mM MgCl2

| Compound | cryo-EM structure of the complex (3.2 Å; local 3.1 Å) (catalytic site of alphaHO-betaHO, together with Pi) | cryo-EM structure of the complex (3.2 Å; local 3.1 Å) (catalytic site of alphaC-betaC and the three noncatalytic beta-alpha interfaces) |
| --- | --- | --- |
| Nc1ncnc2c1ncn2[C@@H]1O[C@H](COP(=O)(O)OP(=O)(O)O)[C@@H](O)[C@H]1O [Mg-ADP] | αCβC and αHOβHO contained Mg-ATP and Mg-ADP + Pi, respectively | – |
| Nc1ncnc2c1ncn2[C@@H]1O[C@H](COP(=O)(O)OP(=O)(O)OP(=O)(O)O)[C@@H](O)[C@H]1O [Mg-ATP] | – | Mg-ATP was observed at the remaining three interfaces, hereafter referred to as the β-α interfaces |
